The source of these data is patent US8415357B2 (Canbas Co., Ltd., priority 2007, dated 2013).

The first experiment deals with Jurkat cells. Nature of the experiment: Adaptation to G2 cell cycle arrest (G1 increment) in X-ray pre-arrested Jurkat cells, flow cytometry. It is filed as cell-based, human. Particulars: Homo sapiens, Jurkat, 24 h, Table 1; concentration causing half-maximal increase of % cells in G1 phase (G1 increment); Jurkat pre-arrested by 10 Gy X-ray, 24 hours with compound. How it is done: Phenotype-based screening was used to measure the ability of compounds of the invention to cause adaptation to G2 cell cycle arrest in G2-arrested cells. Adaptation to G2 cell cycle arrest and re-entry into the cell cycle can result in death of the previously G2-arrested cell, or suppression (inhibition) of further proliferation of the previously G2-arrested cell. In a non-limiting embodiment, the ability to cause adaptation to G2 cell cycle arrest was measured by contacting cells in which G2 arrest had been induced by irradiation (e.g., gamma (γ) radiation or X-ray radiation), with compounds of the invention at various concentrations and, for each compound at each concentration, determining the percentage of cells that escaped G2 arrest and re-entered the cell cycle, by determining the percentage of cells in G1 phase. The IC50 value for each compound was calculated as the dosage (usually in μM) that caused half-maximal increase of the percentage of cells in G1 phase (the G1 increment) measured for that compound. Certain invention compounds were initially identified by phenotype-based screening of small molecule libraries for activity against G2-arrested cells as described above.
Jurkat cells (a human T cell lymphoma-derived cell line) were arrested at the G2 phase by X-ray irradiation at 10 Gy, and cultured for 24 hours in 10% fetal calf serum (FCS)/RPMI1640 at 37° C. with 5% CO2/air. (FCS was from Equitech-Bio, Kerrville, Tex., and RPMI1640 was from Sigma-Aldrich, St. Louis, Mo.) Test compounds were added to the medium at the indicated doses, and the cells were cultured under the conditions described above, for an additional 24 hours before harvesting.
Harvested cells were stained with Krishan's buffer (0.1% sodium citrate, 50 μg/ml propidium iodide, 20 μg/ml RNase A, 0.5% Nonidet P-40) and analyzed by flow cytometry (BD Biosciences, Franklin Lakes, N.J.) to identify the cell stage of each cell in the sample. Cells in G1 phase were identified by having […] (2N) DNA content.
The IC50 value for each compound was calculated as the dosage showing half maximal activity to induce the increase of the percentage of cells in G1 phase (the G1 increment). IC50 values were used to measure the activity of compounds and to determine structure-activity relationships.
Pre-arrested Jurkat cells were prepared as described in Example 1. Briefly, Jurkat cells were subjected to X-ray irradiation at a dose of 10 Gy, and cultured for 24 hours in 10% fetal calf serum (FCS)/RPMI1640 at 37° C. with 5% CO2/air, after which time cells were exposed to various concentrations of test compounds, and cultured under the conditions described above for an additional 24 hours before harvesting. Harvested cells were stained with Krishan's buffer (0.1% sodium citrate, 50 μg/ml propidium iodide, 20 μg/ml RNase A, 0.5% Nonidet P-40) and analyzed by flow cytometry (BD Biosciences, Franklin Lakes, N.J.) to identify the cell stage of each cell in the sample. Cells in G1 phase were identified by having […] (2N) DNA content.
The IC50 value for each compound was calculated as the dosage (concentration in μM) that caused half-maximal increase of the percentage of cells in G1 phase (the G1 increment) measured for that test compound. Table 1 below presents the structure, mass, 1H NMR values, and […] values for representative compounds.
The IC50 value for each compound was calculated as the dosage (concentration in μM) that caused half-maximal increase of the percentage of cells in G1 phase (the G1 increment) measured for that test compound. Table 2 below presents structures, IUPAC name, molecular formula, ID number (“SCID”), mass, 1H NMR values, and IC50 values for representative compounds. Table 3 presents structures, IUPAC name, molecular formula, ID number (“SCID”), mass, 1H NMR values, and IC50 values for further representative compounds.
On the technique in general: Flow cytometry measures light scatter and fluorescence of single cells or particles in a stream.
In the case of `CC1=C(C)C(=O)N(Cc2ccc(C(F)(F)F)cn2)C1=O` [Compound S00110], the IC50 – broadly, the concentration that inhibits the measured activity by half – was found to be 60000 nM. Same read-out and setting: the figure for `COc1nc(NN2C(=O)C(C)=C(C)C2=O)ccc1C(F)(F)F` [Compound S00451] is 60000 nM; for `O=C1C2=C(CCCC2)C(=O)N1Nc1ccc(C(F)(F)F)c(Cl)n1` [Compound S00186, 2-{[6-chloro-5-(trifluoromethyl)-2-pyridyl]amino}-4,5,6,7-tetrahydroisoindole-1,3-dione] it is 630 nM; for `CC1=C(C)C(=O)N(Nc2ccc(C(F)(F)F)cn2)C1=O` [Compound S00073] it is 2500 nM. Same read-out and setting: to `CC1=CC(=O)N(Nc2ccc(C(F)(F)F)c(Cl)n2)C1=O` [Compound S00333] belongs 15000 nM; to `CC1=C(C)C(=O)N(Cc2ccc(C(F)(F)F)c(F)c2)C1=O` [Compound S00412], 10000 nM.

With `CC1=C(C)C(=O)N(Cc2ccc(C(F)(F)F)cc2)C1=O` [Compound S00088], the IC50 was determined as 10000 nM. Same read-out and setting: the figure for `CC1=C(C)C(=O)N(Nc2nc3ccc(Cl)cc3s2)C1=O` [Compound S00590] is 5000 nM; for `CC1=C(C)C(=O)N(Nc2ccc(C(C)(C)C)cc2)C1=O` [Compound S00479] it is 2500 nM; for `CC1=C(C)C(=O)N(Nc2ccc(C(F)(F)F)cc2Br)C1=O` [Compound S00624] it is 10000 nM. On the same count and under the same terms, to `CC1=C(C)C(=O)N(N(C)c2cc(Cl)cc(Cl)c2)C1=O` [Compound S00587] belongs 2500 nM. The same measure, in the same setting: to `CC1=C(C)C(=O)N(Oc2ccc(C)cc2)C1=O` [Compound S00628] belongs 60000 nM. In the case of `CC1=C(C)C(=O)N(Nc2ccc3cc(Cl)ccc3n2)C1=O` [Compound S00622], the IC50 was determined as 5000 nM. Still for that read-out and setting: the figure for `CC1=C(C)C(=O)N(N2CCc3cc(C)ccc32)C1=O` [Compound S00662] is 60000 nM; for `CC1=C(C)C(=O)N(Nc2cc(C(F)(F)F)ccc2C)C1=O` [Compound S00512] it is 5000 nM; for `CC1=C(C)C(=O)N(Nc2ccc(C)c(C)c2)C1=O` [Compound S00452] it is 10000 nM.

As to `CC1=C(C)C(=O)N(Nc2ccc(C)cc2C)C1=O` [Compound S00294], the IC50 stood at 5000 nM. The same measure, in the same setting: to `CC1=C(C)C(=O)N(Nc2ccc(Br)c(C(F)(F)F)c2)C1=O` [Compound S00516, 1-{[4-bromo-3-(trifluoromethyl)phenyl]amino}-3,4-dimethylazoline-2,5-dione] belongs 1250 nM.

The same experiment, now with this note: Homo sapiens, Jurkat, 24 h, Table 2; concentration causing half-maximal increase of % cells in G1 phase (G1 increment); Jurkat pre-arrested by 10 Gy X-ray, 24 hours with compound.
As to `COc1ccc(C(=O)N2CCN(Cc3cc(NN4C(=O)C(C)=C(C)C4=O)nc4cc(Br)ccc34)CC2)cc1` [Compound S01801, 1-{[7-bromo-4-({4-[(4-methoxyphenyl)carbonyl]piperazinyl}methyl) (2-quinolyl)]amino}-3,4-dimethylazoline-2,5-dione], the IC50 was 625 nM. On the same count and under the same terms, the figure for `CC1=C(C)C(=O)N(Nc2cc(CN3CCC(NC(=O)OC(C)(C)C)C3)c3ccc(Br)cc3n2)C1=O` (stereo not drawn) [Compound S01864, N-[1-({2-[(3,4-dimethyl-2,5-dioxoazolinyl)amino]-7-bromo(4-quinolyl)}methyl)pyrrolidin-3-yl] (tert-butoxy)carboxamide] is 468 nM; for `O=C1C2=C(CCCC2)C(=O)N1Nc1ccc(C(F)(F)F)c(Cl)n1` [Compound S00186, 2-{[6-chloro-5-(trifluoromethyl)-2-pyridyl]amino}-4,5,6,7-tetrahydroisoindole-1,3-dione] it is 625 nM. The same measure, in the same setting: the figure for `CC1=C(C)C(=O)N(Nc2cc(C(F)(F)F)cc(Cl)n2)C1=O` [Compound S01737, 1-{[6-chloro-4-(trifluoromethyl)(2-pyridyl)]amino}-3,4-dimethylazoline-2,5-dione] is 312 nM. The same measure, in the same setting: to `CC1=C(C)C(=O)N(Nc2cc(CN3CCN(C4CCN(C(=O)OC(C)(C)C)CC4)CC3)c3ccc(Br)cc3n2)C1=O` [Compound S01928, tert-butyl 4-[4-({2-[(3,4-dimethyl-2,5-dioxoazolinyl)amino]-7-bromo-4-quinolyl}methyl)piperazinyl]piperidinecarboxylate] belongs 938 nM; to `CC1=C(C)C(=O)N(Nc2cc(Cl)c3ccc4ccccc4c3n2)C1=O` [Compound S01207, 1-[(4-chlorobenzo[h]quinolin-2-yl)amino]-3,4-dimethylazoline-2,5-dione], 625 nM. Turning to `CC(=O)N(c1ccc(C(F)(F)F)c(Cl)n1)N1C(=O)C(C)=C(CO)C1=O` [Compound S01820, N-[6-chloro-5-(trifluoromethyl)(2-pyridyl)]-N-[4-(hydroxymethyl)-3-methyl-2,5-dioxoazolinyl]acetamide], the IC50 turned out to be 625 nM. On the same count and under the same terms, the figure for `CC1=C(C)C(=O)N(Nc2cc(CN3CCN(C(=O)c4ccc(N(C)C)cc4)CC3)c3ccc(Br)cc3n2)C1=O` [Compound S01880, 1-({4-[(4-{[4-(dimethylamino)phenyl]carbonyl}piperazinyl)methyl]-7-bromo (2-quinolyl)}amino)-3,4-dimethylazoline-2,5-dione] is 312 nM; for `CC1=C(C)C(=O)N(Nc2cc(CN3CCN(Cc4ccccc4)CC3)c3ccc(Br)cc3n2)C1=O` [Compound S01268, 1-[(7-bromo-4-{[4-benzylpiperazinyl]methyl}(2-quinolyl))amino]-3,4-dimethylazoline-2,5-dione] it is 625 nM; for `CC1=C(C)C(=O)N(Nc2cc(Cl)c3ccc(Cl)c(Cl)c3n2)C1=O` [Compound S01078, 3,4-dimethyl-1-[(4,7,8-trichloro(2-quinolyl))amino]azoline-2,5-dione] it is 78 nM.

`CC1=C(CCC(=O)NC(C)(C)C)C(=O)N(Nc2ccc(C(F)(F)F)c(Cl)n2)C1=O` [Compound S01758, N-(tert-butyl)-3-(1-{[6-chloro-5-(trifluoromethyl)(2-pyridyl)]amino}-4-methyl-2,5-dioxoazolin-3-yl)propanamide]: the IC50 came to 156 nM. With `CC1=C(C)C(=O)N(Nc2ccc(Br)c(C(F)(F)F)c2)C1=O` [Compound S00516, 1-{[4-bromo-3-(trifluoromethyl)phenyl]amino}-3,4-dimethylazoline-2,5-dione], the IC50 came out at 625 nM. Same read-out and setting: to `CC1=C(C)C(=O)N(Nc2cc(Cl)c3cccc(Cl)c3n2)C1=O` [Compound S01005, 1-[(4,8-dichloro(2-quinolyl))amino]-3,4-dimethylazoline-2,5-dione] belongs 200 nM.

The experiment is the same for the next values; noted with them: Homo sapiens, Jurkat, 24 h, Table 3; concentration causing half-maximal increase of % cells in G1 phase (G1 increment); Jurkat pre-arrested by 10 Gy X-ray, 24 hours with compound.
Turning to `CCC(O)CCC1=C(C)C(=O)N(Nc2ccc(C(F)(F)F)c(Cl)n2)C1=O` (stereo not drawn) [Compound S03745, 1-{[6-chloro-5-(trifluoromethyl)(2-pyridyl)]amino}-4-(3-hydroxypentyl)-3-methylazoline-2,5-dione], the IC50 amounted to 60 nM. As for `CC1=C(CC(=O)OC(C)(C)C)C(=O)N(Nc2ccc(C(F)(F)F)c(Cl)n2)C1=O` [Compound S02225, tert-butyl 2-(1-{[6-chloro-5-(trifluoromethyl) (2-pyridyl)]amino}-4-methyl-2,5-dioxoazolin-3-yl)acetate], the IC50 was found to be 30 nM. On the same count and under the same terms, the figure for `CC1=C(CCOCC(C)C)C(=O)N(Nc2ccc(C(F)(F)F)c(Cl)n2)C1=O` [Compound S03955, 1-{[6-chloro-5-(trifluoromethyl)(2-pyridyl)]amino}-4-methyl-3-[2-(2-methylpropoxy)ethyl]azoline-2,5-dione] is 60 nM. As for `CC1=C(CCC2(C)OCCO2)C(=O)N(Nc2ccc(C(F)(F)F)c(Cl)n2)C1=O` [Compound S03456, 1-{[6-chloro-5-(trifluoromethyl) (2-pyridyl)]amino}-4-methyl-3-[2-(2-methyl (1,3-dioxolan-2-yl))ethyl]azoline-2,5-dione], the concentration for half-maximal inhibition (IC50) amounted to 156 nM. Take `CC1=C(COC(C)CC(C)C)C(=O)N(Nc2ccc(C(F)(F)F)c(Cl)n2)C1=O` (stereo not drawn) [Compound S03964, 4-[(1,3-dimethylbutoxy)methyl]-1-{[6-chloro-5-(trifluoromethyl) (2-pyridyl)]amino}-3-methylazoline-2,5-dione]: the IC50 came to 40 nM.
